These results are taken from ChEMBL document CHEMBL3997802, “Design, Synthesis, and Evaluation of Isaindigotone Derivatives To Downregulate c-myc Transcription via Disrupting the Interaction of NM23-H2 with G-Quadruplex” (J Med Chem, 2017).

As a reminder, the pKd is the Kd on a negative log10 scale, so that one unit is a factor of ten. What is called ΔTm is the change in melting temperature against a reference sample.

pKd: −log10 of the molar value. Activity calls are given as the source filed them. The rule behind the calls is not given here.

Assay [1] is described as follows: Inhibition of 5'-biotin-labeled c-Myc Pu18 G-quadruplex DNA (unknown origin) interaction with His-tagged NM23-H2 at 20 uM preincubated with NM23-H2 for 1 hr followed by addition of DNA measured after overnight incubation by ELISA.
The nature of assay [2]: Inhibition of 5'-biotin-labeled c-Myc Pu18 G-quadruplex DNA (unknown origin) interaction with His-tagged NM23-H2 assessed as ratio of Kd for NM23-H2-DNA complex in presence of compound to Kd for […]-DNA complex in absence of compound at 20 uM preincubated with NM23-H2 for 1 hr followed by addition of DNA measured after overnight incubation by ELISA. (In general: An ELISA detects its analyte on a solid surface through an enzyme-linked reagent.)

The target of assay [3] is T1, Nucleoside diphosphate kinase B (Homo sapiens, UniProt P22392). In words: Binding affinity to NT647-labeled His-tagged NM23-H2 (unknown origin) expressed in Escherichia coli BL21(DE3) up to 500 uM after 30 mins by microscale thermophoresis method. For orientation: Microscale thermophoresis detects binding through changes in fluorescence in a small temperature gradient.
T1 sequence (P22392 whole entry): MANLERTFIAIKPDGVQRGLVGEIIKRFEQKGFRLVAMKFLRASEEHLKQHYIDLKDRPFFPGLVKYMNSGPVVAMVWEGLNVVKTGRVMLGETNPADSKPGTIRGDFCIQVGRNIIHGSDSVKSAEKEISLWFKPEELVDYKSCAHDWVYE

The nature of assay [4]: Inhibition of thiazole orange binding to c-Myc Pu18 G-quadruplex DNA (unknown origin) at 10 uM after 30 secs by fluorescence spectrophotometric method.
The nature of assay [5]: Inhibition of thiazole orange binding to c-Myc Pu27 G-quadruplex DNA (unknown origin) at 10 uM after 30 secs by fluorescence spectrophotometric method.
In assay [6] the target is T1, Nucleoside diphosphate kinase B. In words: Binding affinity to NT647-labeled His-tagged NM23-H2 (unknown origin) expressed in Escherichia coli BL21(DE3) after 30 mins by microscale thermophoresis method.
The species named for assay [7] is Homo sapiens. As to the kind of experiment: Inhibition of NM23-H2 binding to c-Myc promoter DNA in human SiHa cell nuclear extract at 4.85 to 9.7 uM after 4 days by ChIP analysis.
Assay [8] can be described thus: Stabilization of 5'-FAM/3'-TAMRA labeled c-Myc Pu18 G-quadruplex DNA (unknown origin) assessed as change in melting temperature at 1 uM after overnight incubation by FRET assay.
The species entered for assay [9] is Homo sapiens. As to the kind of experiment: Inhibition of NM23-H2 binding to c-Myc promoter DNA in human SiHa cell nuclear extract at 1.3 to 2.6 uM after 4 days by ChIP analysis.

In the case of `CN1CCN(c2cc3nc4n(c(=O)c3cc2F)CC/C4=C\c2ccc(C(=O)NCCCN3CCCC3)cc2)CC1`, in [1], the inhibition entry was “Active”.

Turning to `CN1CCN(c2cc3nc4n(c(=O)c3cc2F)CCC/C4=C\c2ccc(NC(=O)CN3CCN(CCO)CC3)cc2)CC1`, in [2], the Ratio is under 1.4. Besides, the outcome in assay [3] was Active. For `O=C(NCCN1CCCC1)c1ccc(/C=C2\CCn3c2nc2cc(NCCN4CCCC4)c(F)cc2c3=O)cc1`, the inhibition entry in [1], in assay [4] and in assay [5] was “Active” throughout. Take `CN1CCN(c2cc3nc4n(c(=O)c3cc2F)CCC/C4=C\c2ccc(NC(=O)CCN3CCN(CCO)CC3)cc2)CC1`: the result in [3] was Active. Regarding `CN1CCN(c2cc3nc4n(c(=O)c3cc2F)CCC/C4=C\c2ccc(NC(=O)CCN3CCCC3)cc2)CC1`, in assay [2], the Ratio turned out to be 1.3. On to `CN1CCN(c2cc3nc4n(c(=O)c3cc2F)CC/C4=C\c2ccc(NC(=O)CN3CCCC3)cc2)CC1`, for which the result in assay [3] was Active. With `CCN(CC)CCC(=O)Nc1ccc(/C=C2\CCn3c2nc2cc(N4CCN(C)CC4)c(F)cc2c3=O)cc1`, the Ratio in assay [2] stood at 1.4. Take `CN1CCN(c2cc3nc4n(c(=O)c3cc2F)CC/C4=C\c2ccc(C(=O)NCCCN3CCCCC3)cc2)CC1`: the inhibition result in assay [1] was “Active”.

`CN1CCN(c2cc3nc4n(c(=O)c3cc2F)CCC/C4=C\c2ccc(C(=O)NCCN3CCCC3)cc2)CC1`: the inhibition entry in assay [1] is “Active”. In the case of `CN1CCN(c2cc3nc4n(c(=O)c3cc2F)CC/C4=C\c2ccc(C(=O)NCCN3CCCCC3)cc2)CC1`, the Ratio in assay [2] fell in the range of 1.4 to 4.3. For `CN1CCN(c2cc3nc4n(c(=O)c3cc2F)CC/C4=C\c2ccc(NC(=O)CN3CCN(CCO)CC3)cc2)CC1`, in [1], the inhibition entry was “Active”. Further, in assay [3], the outcome was Active. Turning to `CCN(CC)CCNC(=O)c1ccc(/C=C2\CCCn3c2nc2cc(N4CCN(C)CC4)c(F)cc2c3=O)cc1`, the inhibition entry in assay [1] was “Active”. With `CCN(CC)CCNC(=O)c1ccc(/C=C2\CCn3c2nc2cc(NCCN4CCCC4)c(F)cc2c3=O)cc1`, the inhibition entry in assay [1], in assay [4] and in [5] was “Active” throughout. Regarding `CN1CCN(c2cc3nc4n(c(=O)c3cc2F)CC/C4=C\c2ccc(NC(=O)CCN3CCN(CCO)CC3)cc2)CC1`, the inhibition entry in [1] was “Active”. Also, the negative-log Kd (pKd) in [6] was 5.74. Further, in the assay filed under Homo sapiens [7], the inhibition result was “inactive”. Consider `O=C(CCN1CCCC1)Nc1ccc(/C=C2\CCn3c2nc2cc(NC(=O)CCN4CCCC4)ccc2c3=O)cc1`, for which the Ratio in [2] came to 2.5. Moreover, in assay [8], the ΔTm turned out to be 8.5 °C. Further, in assay [3], the result was inactive. Take `O=C(CCN1CCCCC1)Nc1ccc(/C=C2\CCn3c2nc2cc(N4CCCCC4)c(F)cc2c3=O)cc1`: the Ratio in assay [2] was 1.4 to 4.3. Take `O=C(NCCN1CCCC1)c1ccc(/C=C2\CCn3c2nc2cc(NCCCN4CCCC4)c(F)cc2c3=O)cc1`: the inhibition result in assay [1], in assay [4] and in assay [5] was “Active” throughout.

As to `O=C(CCN1CCCC1)Nc1ccc(/C=C2\CCCn3c2nc2cc(NC(=O)CCN4CCCC4)ccc2c3=O)cc1`, the Ratio in assay [2] was 2.4. Further, the ΔTm in assay [8] was 3.4 °C. The pKd in assay [6] was 4.66. As for `CN1CCN(c2cc3nc4n(c(=O)c3cc2F)CC/C4=C\c2ccc(NC(=O)CCN3CCCC3)cc2)CC1`, the Ratio in assay [2] stood at 1.6. Besides, in [1], the inhibition result was “Active”. Take `CCN(CC)CCNC(=O)c1ccc(/C=C2\CCn3c2nc2cc(N4CCN(C)CC4)c(F)cc2c3=O)cc1`: the Ratio in [2] was 2.7.

On to `CCN(CC)CCCNC(=O)c1ccc(/C=C2\CCn3c2nc2cc(NCCCN4CCCC4)c(F)cc2c3=O)cc1`, for which the inhibition entry in [1], in assay [4] and in assay [5] was “Active” throughout. Take `CCN(CC)CCCNC(=O)c1ccc(/C=C2\CCn3c2nc2cc(N4CCN(C)CC4)c(F)cc2c3=O)cc1`: the inhibition entry in assay [1] was “Active”.

On to `CN1CCN(c2cc3nc4n(c(=O)c3cc2F)CC/C4=C\c2ccc(NC(=O)CCN3CCCCC3)cc2)CC1`, for which the inhibition result in assay [1] was “Active”. In the case of `O=C(CCN1CCCC1)Nc1ccc(/C=C2\CCn3c2nc2cc(N4CCCCC4)c(F)cc2c3=O)cc1`, the Ratio in assay [2] fell in the range of 1.4 to 4.3. For the same molecule, in the assay filed under Homo sapiens [9], the inhibition entry is “inactive”. Regarding `CCN(CC)CCCNC(=O)c1ccc(/C=C2\CCn3c2nc2cc(NCCN4CCCC4)c(F)cc2c3=O)cc1`, the inhibition entry in [1], in [4] and in [5] was “Active” each time. Regarding `CCN(CC)CCC(=O)Nc1ccc(/C=C2\CCn3c2nc2cc(N4CCCCC4)c(F)cc2c3=O)cc1`, the Ratio in assay [2] is 1.4 to 4.3. With `CCN(CC)CCC(=O)Nc1ccc(/C=C2\CCCn3c2nc2cc(N4CCN(C)CC4)c(F)cc2c3=O)cc1`, in assay [1], the inhibition result is “Active”. The same measure, in the same setting: the entry for `CN1CCN(c2cc3nc4n(c(=O)c3cc2F)CC/C4=C\c2ccc(C(=O)NCCN3CCCC3)cc2)CC1` is “Active”. As to `O=C(NCCCN1CCCC1)c1ccc(/C=C2\CCn3c2nc2cc(NCCCN4CCCC4)c(F)cc2c3=O)cc1`, the inhibition result in [1], in assay [4] and in [5] was “Active” throughout.

Take `CN1CCN(c2cc3nc4n(c(=O)c3cc2F)CCC/C4=C\c2ccc(C(=O)NCCN3CCCCC3)cc2)CC1`: the inhibition entry in assay [1] is “Active”. In the case of `CN(C)CCNC(=O)c1ccc(/C=C2\CCn3c2nc2cc(N4CCN(C)CC4)c(F)cc2c3=O)cc1`, in assay [1], the inhibition entry was “Active”. In addition, the outcome in [3] was Active. For `CN1CCN(c2cc3nc4n(c(=O)c3cc2F)CCC/C4=C\c2ccc(NC(=O)CCN3CCCCC3)cc2)CC1`, in assay [1], the inhibition entry was “Active”. As to `CN(C)CCCNC(=O)c1ccc(/C=C2\CCn3c2nc2cc(N4CCN(C)CC4)c(F)cc2c3=O)cc1`, the inhibition entry in [1] is “Active”.
